Assays:
Phosphodiesterase PDE5 = biological target: T1, Phosphodiesterase PDE5 (Homo sapiens, UniProt O76074); experiment: Selectivity panel; assay type: biochemical
T1 construct: purchased Eurofins Panlabs Taiwan Ltd
Excerpt: (§1) The selectivity of T‐495 at 10 μmol/L against a panel of 106 targets, including receptors, enzymes, ion channels, and transporters, was characterized (Eurofins Panlabs Taiwan Ltd., Taipei, Taiwan).

Cyclooxygenase-2 (COX-2) = biological target: T2, Cyclooxygenase-2 (COX-2) (Homo sapiens, UniProt P35354); experiment: Selectivity panel; assay type: biochemical
T2 construct: purchased Eurofins Panlabs Taiwan Ltd
Excerpt: as §1

Carbonic anhydrase II = biological target: T3, Carbonic anhydrase II (Homo sapiens, UniProt P00918); experiment: Selectivity panel; assay type: biochemical
T3 construct: purchased Eurofins Panlabs Taiwan Ltd
Excerpt: as §1

Phosphodiesterase PDE6 = biological target: T4, Phosphodiesterase PDE6 (Bos taurus, UniProt P11541+P23439); experiment: Selectivity panel; assay type: biochemical
T4 construct: purchased Eurofins Panlabs Taiwan Ltd
Excerpt: as §1

[1] = tested on: Catechol-O-Methyl Transferase (COMT); experiment: Selectivity panel; assay type: biochemical
Excerpt: as §1

[2] = biological target: T5, Monoamine oxidase A (MAO-A) (Homo sapiens, UniProt P21397); experiment: Selectivity panel; assay type: biochemical
T5 construct: purchased Eurofins Panlabs Taiwan Ltd
Excerpt: as §1

[3] = biological target: T6, Monoamine oxidase B (MAO-B) (Homo sapiens, UniProt P27338); experiment: Selectivity panel; assay type: biochemical
T6 construct: purchased Eurofins Panlabs Taiwan Ltd
Excerpt: as §1

ATPase, Na+/K+, Heart = experiment: Selectivity panel; assay type: biochemical
Excerpt: as §1

[4] = biological target: T7, Phosphodiesterase PDE10A2 (Homo sapiens, UniProt Q9Y233); experiment: Selectivity panel; assay type: biochemical
T7 construct: purchased Eurofins Panlabs Taiwan Ltd
Excerpt: as §1

[5] = tested on: Protein kinase C (PKC), non-selective; experiment: Selectivity panel; assay type: biochemical
Excerpt: as §1

Phosphodiesterase PDE3 = experiment: Selectivity panel; assay type: biochemical
Excerpt: as §1

Lipoxygenase (5-LO) = biological target: T8, Lipoxygenase (5-LO) (Homo sapiens, UniProt P09917); experiment: Selectivity panel; assay type: biochemical
T8 construct: purchased Eurofins Panlabs Taiwan Ltd
Excerpt: as §1

[6] = biological target: T9, Choline esterase, acetyl, ACES (Homo sapiens, UniProt P22303); experiment: Selectivity panel; assay type: biochemical
T9 construct: purchased Eurofins Panlabs Taiwan Ltd
Excerpt: as §1

Xanthine oxidase = biological target: T10, Xanthine oxidase (Bos taurus, UniProt P80457); experiment: Selectivity panel; assay type: biochemical
T10 construct: purchased Eurofins Panlabs Taiwan Ltd
Excerpt: as §1

Phosphodiesterase PDE4 = experiment: Selectivity panel; assay type: biochemical
Excerpt: as §1

[7] = biological target: T11, Matrix metalloproteinase-7 (MMP-7) (Homo sapiens, UniProt P09237); experiment: Selectivity panel; assay type: biochemical
T11 construct: purchased Eurofins Panlabs Taiwan Ltd
Excerpt: as §1

Peptidase, factor Xa = biological target: T12, Peptidase, factor Xa (Homo sapiens, UniProt P00742); experiment: Selectivity panel; assay type: biochemical
T12 construct: purchased Eurofins Panlabs Taiwan Ltd
Excerpt: as §1

Steroid 5α-reductase = experiment: Selectivity panel; assay type: biochemical
Excerpt: as §1

[8] = tested on: ATPase, Ca2+, Skeletal Muscle; experiment: Selectivity panel; assay type: biochemical
Excerpt: as §1

[9] = biological target: T13, Matrix metalloproteinase-1 (MMP-1) (Homo sapiens, UniProt P03956); experiment: Selectivity panel; assay type: biochemical
T13 construct: purchased Eurofins Panlabs Taiwan Ltd
Excerpt: as §1

[10] = biological target: T14, Nitric oxide synthase, inducible (iNOS) (Mus musculus, UniProt P29477); experiment: Selectivity panel; assay type: biochemical
T14 construct: purchased Eurofins Panlabs Taiwan Ltd
Excerpt: as §1

[11] = biological target: T15, Metalloproteinase, Neutral Endopeptidase (Homo sapiens, UniProt P08473); experiment: Selectivity panel; assay type: biochemical
T15 construct: purchased Eurofins Panlabs Taiwan Ltd
Excerpt: as §1

Phosphodiesterase PDE4D2 = biological target: T16, Phosphodiesterase PDE4D2 (Homo sapiens, UniProt Q08499); experiment: Selectivity panel; assay type: biochemical
T16 construct: purchased Eurofins Panlabs Taiwan Ltd
Excerpt: as §1

Protein kinase A (PKA) = experiment: Selectivity panel; assay type: biochemical
Excerpt: as §1

human M1R = biological target: T17, human M1R (Homo sapiens, UniProt P11229); experiment: [3H]‐NMS binding assay; design: expressed in transfected cells
T17 sequence (P11229 1-460): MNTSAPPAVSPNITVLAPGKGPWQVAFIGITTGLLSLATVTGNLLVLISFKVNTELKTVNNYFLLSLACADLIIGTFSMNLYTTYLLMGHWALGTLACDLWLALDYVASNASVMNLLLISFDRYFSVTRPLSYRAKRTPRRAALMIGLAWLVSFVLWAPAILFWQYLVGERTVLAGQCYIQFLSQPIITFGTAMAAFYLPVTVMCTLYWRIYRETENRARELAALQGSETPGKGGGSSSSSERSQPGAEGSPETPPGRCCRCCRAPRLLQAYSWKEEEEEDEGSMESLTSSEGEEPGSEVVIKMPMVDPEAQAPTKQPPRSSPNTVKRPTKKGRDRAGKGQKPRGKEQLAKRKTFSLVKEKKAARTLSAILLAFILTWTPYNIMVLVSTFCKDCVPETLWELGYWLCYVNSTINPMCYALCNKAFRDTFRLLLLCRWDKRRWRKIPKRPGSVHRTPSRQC
Procedure: Cell membranes from FreeStyle 293 cells transiently expressing human M1R were incubated with T‐495 (0.01‐30 μmol/L) and 0.2 nmol/L [^3H]‐NMS (PerkinElmer) in assay buffer as described above. After 2 hours at room temperature, the binding was terminated by filtration through GF/C filter plates using a cell harvester and washed five times with 300 μl of 50 mmol/L Tris‐HCl. GF/C plates were dried at 42°C and then 25 μl of microscint 0 was added. Radioactivity was measured by Topcount.

[12] = tested on: Transporter, vesicular monoamine (non-selective); experiment: Selectivity panel; assay type: binding
Excerpt: as §1

[13] = tested on: Calcium channel L-type, dihydropyridine; experiment: Selectivity panel; assay type: binding
Excerpt: as §1

Serotonin 5-HT4 = experiment: Selectivity panel; assay type: binding
Excerpt: as §1

GABAB, non-selective = experiment: Selectivity panel; assay type: binding
Excerpt: as §1

Adenosine A2B = biological target: T18, Adenosine A2B (Homo sapiens, UniProt P29275); experiment: Selectivity panel; assay type: binding
T18 construct: purchased Eurofins Panlabs Taiwan Ltd
Excerpt: as §1

[14] = biological target: T19, Transporter, dopamine (DAT) (Homo sapiens, UniProt Q01959); experiment: Selectivity panel; assay type: binding
T19 construct: purchased Eurofins Panlabs Taiwan Ltd
Excerpt: as §1

Serotonin 5-HT2B = biological target: T20, Serotonin 5-HT2B (Homo sapiens, UniProt P41595); experiment: Selectivity panel; assay type: binding
T20 construct: purchased Eurofins Panlabs Taiwan Ltd
Excerpt: as §1

Imidazoline I2, central = experiment: Selectivity panel; assay type: binding
Excerpt: as §1

Opiate δ1 (OP1, DOP) = biological target: T21, Opiate δ1 (OP1, DOP) (Homo sapiens, UniProt P41143); experiment: Selectivity panel; assay type: binding
T21 construct: purchased Eurofins Panlabs Taiwan Ltd
Excerpt: as §1

T4 sequence (P11541 whole entry): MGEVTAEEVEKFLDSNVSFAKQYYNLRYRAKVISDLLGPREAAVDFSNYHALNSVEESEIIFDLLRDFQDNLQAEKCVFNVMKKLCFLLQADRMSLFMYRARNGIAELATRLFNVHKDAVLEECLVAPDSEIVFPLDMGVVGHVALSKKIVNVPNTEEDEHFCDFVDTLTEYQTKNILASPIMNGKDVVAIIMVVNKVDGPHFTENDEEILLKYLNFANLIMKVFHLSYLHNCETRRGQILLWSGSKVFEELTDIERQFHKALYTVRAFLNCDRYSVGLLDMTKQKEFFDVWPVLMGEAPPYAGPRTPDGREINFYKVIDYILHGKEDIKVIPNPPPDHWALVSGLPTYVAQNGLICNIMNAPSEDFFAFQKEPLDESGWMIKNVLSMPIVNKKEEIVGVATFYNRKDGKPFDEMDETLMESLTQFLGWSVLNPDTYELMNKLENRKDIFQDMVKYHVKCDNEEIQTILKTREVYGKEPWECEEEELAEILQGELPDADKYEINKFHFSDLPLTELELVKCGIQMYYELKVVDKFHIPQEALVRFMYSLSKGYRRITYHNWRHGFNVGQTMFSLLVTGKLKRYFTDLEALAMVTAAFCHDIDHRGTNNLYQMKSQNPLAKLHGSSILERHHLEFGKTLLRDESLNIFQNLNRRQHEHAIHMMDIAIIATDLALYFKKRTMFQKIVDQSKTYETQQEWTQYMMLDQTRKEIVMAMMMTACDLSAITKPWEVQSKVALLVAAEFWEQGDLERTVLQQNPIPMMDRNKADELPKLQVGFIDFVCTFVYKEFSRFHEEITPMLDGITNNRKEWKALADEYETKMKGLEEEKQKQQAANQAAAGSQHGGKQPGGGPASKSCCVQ
T4 sequence (P23439 whole entry): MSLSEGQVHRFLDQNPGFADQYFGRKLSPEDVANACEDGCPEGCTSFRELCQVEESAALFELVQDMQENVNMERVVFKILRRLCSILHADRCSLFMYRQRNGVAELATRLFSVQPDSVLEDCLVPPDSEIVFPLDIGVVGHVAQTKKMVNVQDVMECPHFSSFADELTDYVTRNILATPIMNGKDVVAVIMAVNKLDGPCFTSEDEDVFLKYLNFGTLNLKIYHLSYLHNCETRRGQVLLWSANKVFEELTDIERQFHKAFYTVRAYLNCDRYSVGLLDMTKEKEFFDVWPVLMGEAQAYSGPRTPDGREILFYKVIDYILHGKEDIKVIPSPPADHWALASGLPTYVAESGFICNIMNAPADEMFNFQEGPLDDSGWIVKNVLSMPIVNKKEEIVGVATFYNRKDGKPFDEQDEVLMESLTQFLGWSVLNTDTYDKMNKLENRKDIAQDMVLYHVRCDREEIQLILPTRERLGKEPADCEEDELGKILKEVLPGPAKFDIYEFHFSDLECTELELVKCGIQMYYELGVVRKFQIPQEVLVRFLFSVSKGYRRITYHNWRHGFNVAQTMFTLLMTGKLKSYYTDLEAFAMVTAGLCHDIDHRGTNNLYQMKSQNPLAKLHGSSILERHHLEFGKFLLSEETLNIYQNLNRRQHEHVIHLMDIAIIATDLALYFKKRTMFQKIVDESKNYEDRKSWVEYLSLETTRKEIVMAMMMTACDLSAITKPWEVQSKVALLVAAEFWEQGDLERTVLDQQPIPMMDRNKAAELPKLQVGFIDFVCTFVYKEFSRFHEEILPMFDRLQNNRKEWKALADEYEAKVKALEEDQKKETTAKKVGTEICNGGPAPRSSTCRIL
T2 sequence (P35354 18-604): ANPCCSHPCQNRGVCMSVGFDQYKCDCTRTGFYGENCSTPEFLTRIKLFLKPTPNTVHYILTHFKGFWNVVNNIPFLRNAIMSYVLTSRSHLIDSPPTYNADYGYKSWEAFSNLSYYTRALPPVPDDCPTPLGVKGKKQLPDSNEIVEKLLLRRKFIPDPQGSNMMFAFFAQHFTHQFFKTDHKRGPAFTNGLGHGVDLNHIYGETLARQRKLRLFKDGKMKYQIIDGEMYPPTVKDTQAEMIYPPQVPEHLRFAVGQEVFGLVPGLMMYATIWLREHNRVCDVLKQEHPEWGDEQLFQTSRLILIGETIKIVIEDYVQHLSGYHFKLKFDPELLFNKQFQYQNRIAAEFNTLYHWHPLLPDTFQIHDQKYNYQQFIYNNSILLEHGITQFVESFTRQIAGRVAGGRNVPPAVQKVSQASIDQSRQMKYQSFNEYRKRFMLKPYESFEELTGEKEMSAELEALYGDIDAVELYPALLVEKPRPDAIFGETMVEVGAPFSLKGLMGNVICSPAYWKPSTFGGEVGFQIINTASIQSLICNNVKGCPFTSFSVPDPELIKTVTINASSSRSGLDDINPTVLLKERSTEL
T11 sequence (P09237 95-267): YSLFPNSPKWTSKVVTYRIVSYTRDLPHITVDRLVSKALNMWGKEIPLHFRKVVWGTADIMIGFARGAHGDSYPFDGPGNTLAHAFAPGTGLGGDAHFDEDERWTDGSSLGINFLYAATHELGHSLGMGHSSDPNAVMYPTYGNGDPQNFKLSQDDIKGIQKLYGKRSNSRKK
T21 sequence (P41143 whole entry): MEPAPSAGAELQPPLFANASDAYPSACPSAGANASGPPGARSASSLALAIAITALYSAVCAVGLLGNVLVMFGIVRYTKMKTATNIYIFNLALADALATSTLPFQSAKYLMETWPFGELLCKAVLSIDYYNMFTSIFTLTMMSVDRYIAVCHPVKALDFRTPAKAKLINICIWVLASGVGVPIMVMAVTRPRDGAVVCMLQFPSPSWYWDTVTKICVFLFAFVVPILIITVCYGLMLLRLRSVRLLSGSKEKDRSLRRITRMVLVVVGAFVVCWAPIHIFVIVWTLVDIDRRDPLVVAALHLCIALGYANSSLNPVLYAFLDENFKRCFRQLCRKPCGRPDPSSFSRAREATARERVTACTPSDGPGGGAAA
T15 sequence (P08473 whole entry): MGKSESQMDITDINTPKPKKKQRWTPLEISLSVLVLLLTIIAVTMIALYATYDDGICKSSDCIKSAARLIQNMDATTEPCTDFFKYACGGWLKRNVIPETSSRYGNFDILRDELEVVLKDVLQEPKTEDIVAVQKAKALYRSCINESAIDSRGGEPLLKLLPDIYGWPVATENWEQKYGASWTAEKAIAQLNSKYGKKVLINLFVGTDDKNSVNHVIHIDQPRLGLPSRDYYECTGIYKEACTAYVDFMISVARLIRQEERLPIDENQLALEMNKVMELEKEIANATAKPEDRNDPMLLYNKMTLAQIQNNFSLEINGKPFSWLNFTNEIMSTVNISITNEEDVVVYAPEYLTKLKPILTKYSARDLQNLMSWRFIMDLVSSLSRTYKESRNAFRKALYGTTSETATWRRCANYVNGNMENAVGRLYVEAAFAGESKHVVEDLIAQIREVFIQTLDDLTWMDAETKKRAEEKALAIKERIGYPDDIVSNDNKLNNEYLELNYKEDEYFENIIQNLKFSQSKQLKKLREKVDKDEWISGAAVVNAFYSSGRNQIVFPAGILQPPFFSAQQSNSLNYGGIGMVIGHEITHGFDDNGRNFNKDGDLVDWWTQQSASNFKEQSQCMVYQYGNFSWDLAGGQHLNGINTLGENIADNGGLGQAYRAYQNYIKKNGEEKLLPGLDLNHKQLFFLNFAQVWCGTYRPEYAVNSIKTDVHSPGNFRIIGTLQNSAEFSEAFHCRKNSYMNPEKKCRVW
T7 sequence (Q9Y233 267-1055 limits assumed): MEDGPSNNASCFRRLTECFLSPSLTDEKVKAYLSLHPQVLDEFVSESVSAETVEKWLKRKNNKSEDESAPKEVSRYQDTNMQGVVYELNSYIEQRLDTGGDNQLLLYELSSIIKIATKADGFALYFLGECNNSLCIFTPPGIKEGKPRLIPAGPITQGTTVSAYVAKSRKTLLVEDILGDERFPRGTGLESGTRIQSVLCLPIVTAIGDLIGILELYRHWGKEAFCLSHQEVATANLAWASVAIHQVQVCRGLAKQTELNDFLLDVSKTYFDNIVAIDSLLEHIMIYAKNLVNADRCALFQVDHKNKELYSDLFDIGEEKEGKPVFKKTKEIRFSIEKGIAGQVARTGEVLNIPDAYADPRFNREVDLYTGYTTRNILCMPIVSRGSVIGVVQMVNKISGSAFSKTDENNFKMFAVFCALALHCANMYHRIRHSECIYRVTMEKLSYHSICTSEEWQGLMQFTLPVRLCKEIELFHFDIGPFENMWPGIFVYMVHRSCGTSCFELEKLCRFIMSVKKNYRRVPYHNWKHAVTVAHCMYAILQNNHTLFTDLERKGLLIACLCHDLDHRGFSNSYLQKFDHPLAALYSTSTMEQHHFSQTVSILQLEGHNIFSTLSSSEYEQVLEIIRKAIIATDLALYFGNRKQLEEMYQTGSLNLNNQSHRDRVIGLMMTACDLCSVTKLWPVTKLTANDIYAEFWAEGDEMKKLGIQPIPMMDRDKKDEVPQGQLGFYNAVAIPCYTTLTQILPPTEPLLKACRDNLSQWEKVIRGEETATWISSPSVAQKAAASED
T19 sequence (Q01959 whole entry): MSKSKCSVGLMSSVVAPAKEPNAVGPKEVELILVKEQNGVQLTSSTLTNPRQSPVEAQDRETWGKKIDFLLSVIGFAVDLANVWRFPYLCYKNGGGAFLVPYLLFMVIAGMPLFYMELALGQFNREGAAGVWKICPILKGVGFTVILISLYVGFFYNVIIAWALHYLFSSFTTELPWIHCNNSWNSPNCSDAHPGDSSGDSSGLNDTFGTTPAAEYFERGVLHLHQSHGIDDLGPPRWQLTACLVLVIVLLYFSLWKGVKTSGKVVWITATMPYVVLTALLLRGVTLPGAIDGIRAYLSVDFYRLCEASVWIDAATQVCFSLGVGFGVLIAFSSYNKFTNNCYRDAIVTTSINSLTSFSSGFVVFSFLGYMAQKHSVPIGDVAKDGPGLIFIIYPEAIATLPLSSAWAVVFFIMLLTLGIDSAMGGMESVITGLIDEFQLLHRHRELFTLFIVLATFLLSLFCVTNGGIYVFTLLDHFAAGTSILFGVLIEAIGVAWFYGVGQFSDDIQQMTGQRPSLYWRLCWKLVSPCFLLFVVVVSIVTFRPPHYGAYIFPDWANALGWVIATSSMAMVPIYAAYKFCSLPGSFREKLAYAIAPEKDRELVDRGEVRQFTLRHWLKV

Cc1c(Cc2ccc(Cl)nc2)cc2c(c1Cl)OCN([C@H]1CCC[C@@H]1O)C2=O [T‐495, 8‐chloro‐6‐((6‐chloropyridin‐3‐yl)methyl)‐3‐((1S,2S)‐2‐hydroxycyclopentyl)‐7‐methyl‐2,3‐dihydro‐4H‐1,3‐benzoxazin‐4‐one]
inhibition at 10 µM (Phosphodiesterase PDE5): 48%
inhibition at 10 µM (Cyclooxygenase-2 (COX-2)): 31%
inhibition at 10 µM (Carbonic anhydrase II): -9%
inhibition at 10 µM (Phosphodiesterase PDE6): 6%
% inhibition at 10 μM [1]: 2%
inhibition at 10 µM [2]: 36%
inhibition at 10 µM [3]: 6%
% inhibition at 10 μM (ATPase, Na+/K+, Heart): 4%
inhibition at 10 µM [4]: 5%
% inhibition at 10 μM [5]: 0%
% inhibition at 10 μM (Phosphodiesterase PDE3): 2%
inhibition at 10 µM (Lipoxygenase (5-LO)): 15%
inhibition at 10 µM [6]: -2%
inhibition at 10 µM (Xanthine oxidase): 7%
% inhibition at 10 μM (Phosphodiesterase PDE4): 22%
inhibition at 10 µM [7]: 3%
inhibition at 10 µM (Peptidase, factor Xa): -2%
% inhibition at 10 μM (Steroid 5α-reductase): 2%
% inhibition at 10 μM [8]: 0%
inhibition at 10 µM [9]: 5%
inhibition at 10 µM [10]: 0%
inhibition at 10 µM [11]: 10%
inhibition at 10 µM (Phosphodiesterase PDE4D2): 2%
% inhibition at 10 μM (Protein kinase A (PKA)): -4%
concentration without inhibition of [3H]‐NMS binding relative to that required for procognitive efficacy (human M1R): up to 100 fold
inhibition of [3H]‐NMS binding to M1R (human M1R; T‐495 concentrations below 30 μmol/L): did not inhibit
% inhibition at 10 μM [12]: 12%
% inhibition at 10 μM [13]: 27%
% inhibition at 10 μM (Serotonin 5-HT4): 22%
% inhibition at 10 μM (GABAB, non-selective): 4%
inhibition at 10 µM (Adenosine A2B): 7%
inhibition at 10 µM [14]: 58%
inhibition at 10 µM (Serotonin 5-HT2B): 28%
% inhibition at 10 μM (Imidazoline I2, central): 76%
inhibition at 10 µM (Opiate δ1 (OP1, DOP)): 4%
